Laboratory results from US6783949B1, “Processes for determining whether a test substance contains lipases or lipase inhibitors” (Aventis Pharma Deutschland GmbH, priority 1999, dated 2004).

Target: T1, HSL (Rattus norvegicus, UniProt P15304)
T1 construct: The partially purified HSL can be stored at −70° C. for 4 to 6 weeks; from tissue; host or cells: rat epididymal fat cells (male Wistar rats)
T1 sequence (P15304 1-768 isoform P15304-2): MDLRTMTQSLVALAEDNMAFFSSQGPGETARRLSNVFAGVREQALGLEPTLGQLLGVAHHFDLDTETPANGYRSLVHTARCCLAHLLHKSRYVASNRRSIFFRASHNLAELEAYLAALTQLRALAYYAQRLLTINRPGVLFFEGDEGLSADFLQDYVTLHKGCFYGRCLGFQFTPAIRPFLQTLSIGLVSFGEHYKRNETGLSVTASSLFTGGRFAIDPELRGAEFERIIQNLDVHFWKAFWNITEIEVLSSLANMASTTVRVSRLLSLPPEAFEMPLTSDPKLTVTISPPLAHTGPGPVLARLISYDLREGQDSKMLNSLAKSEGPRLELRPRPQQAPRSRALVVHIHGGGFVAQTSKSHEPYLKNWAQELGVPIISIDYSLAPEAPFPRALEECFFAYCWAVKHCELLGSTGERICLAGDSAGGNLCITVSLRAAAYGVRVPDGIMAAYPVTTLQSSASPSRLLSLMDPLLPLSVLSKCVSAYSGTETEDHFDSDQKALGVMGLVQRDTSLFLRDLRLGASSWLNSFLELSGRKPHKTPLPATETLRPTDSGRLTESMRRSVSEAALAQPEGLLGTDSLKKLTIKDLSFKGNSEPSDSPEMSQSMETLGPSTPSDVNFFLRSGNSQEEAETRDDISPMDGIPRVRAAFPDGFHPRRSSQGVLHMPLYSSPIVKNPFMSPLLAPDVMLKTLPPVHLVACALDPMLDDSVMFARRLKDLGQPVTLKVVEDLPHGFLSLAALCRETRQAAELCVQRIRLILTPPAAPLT
Assay: Indirect NAG assay (extinction increase at 481 nm)
Type: biochemical
Procedure: A typical reaction is carried out at 30° C. for 60 min, for example in 1.5 ml Eppendorf vessels or 96-hole plates. […] 180 μl of the substrate solution (20 μg/ml of phosphatidylcholine, 10 μg/ml of phosphatidylinositol, 50 μg/ml of NAG in assay buffer) are added. After a preincubation for 15 min at 30° C., 20 μl of HSL in assay buffer are pipetted in and the extinction is immediately measured (see above) at 481 nm in a cuvette photometer (0.5 ml cuvette) or microtiter plate reader. After a certain incubation time, which is variable and depends on the chosen enzyme concentration and can be between 2 and 240 minutes, in this case incubation at 30° C. for 60 min, the extinction is measured again. The increase in the extinction in the yellow region, in this case at 481 nm, is a measure of the enzyme activity.
Isolated rat fat cells are obtained from epididymal fatty tissue from untreated male rats (Wistar, 220-250 g) by collagenase treatment according to published processes. The fat cells from 10 rats are washed three times by flotation with 50 ml each of homogenization buffer ([…], pH 7.4, 0.25 M sucrose, 1 mM ethylenediamine-N,N,N′,N′-tetraacetic acid (EDTA), 1 mM dithiothreitol (DTT), 10 μg/ml of leupeptin, 10 μg/ml of antipain, 20 μg/ml of pepstatin) and finally taken up in 10 ml of homogenization buffer. The fat cells are homogenized in a Teflon-in-glass homogenizer (Braun-Melsungen) by 10 strokes at 1500 rpm and 15° C. The homogenizate is centrifuged (Sorvall SM24 tubes, 5000 rpm, 10 min, 4° C.). The […] between the overlying fatty layer and the pellet is removed and the centrifugation is repeated. The […] resulting from this is centrifuged again (Sorvall SM24 tubes, 20,000 rpm, 45 min, 4° C.). […] After incubation for 60 min at 4° C. (shake at intervals of 15 min), the batch is centrifuged (Sorvall SM24 tubes, 3000 rpm, 10 min, 4° C.). The supernatant is brought to pH 5.2 by addition of glacial acetic acid and incubated at 4° C. for 30 min. […] The suspension is dialyzed overnight at 4° C. against 25 mM TRIS/HCl, pH 7.4, 50% glycerol, 1 mM DTT, and 10 μg/ml of leupeptin, pepstatin, and antipain and then applied to a hydroxylapatite column (0.1 g per 1 ml of suspension, equilibrated with 10 mM potassium phosphate, pH 7.0, 30% glycerol, 1 mM DTT). The column is washed with four volumes of equilibration buffer at a flow rate of 20 to 30 ml/h. The HSL is eluted with a volume of equilibration buffer which contains 0.5 M potassium phosphate, then dialyzed (see above) and concentrated 5 to 10 times by ultrafiltration (Amicon Diaflo PM 10 filter) at 4° C. The partially purified HSL can be stored at −70° C. for 4 to 6 weeks.
6 mg of phosphatidylcholine and 6 mg of phosphatidylinositol are dissolved in 1 ml of chloroform each. 10 mg of NAG are dissolved in 1 ml of chloroform. […] The chloroform (225 μl total volume) is completely removed by overblowing with a stream of N2. The dried substrate can be stored at 4° C. for up to three days. For the preparation of the phospholipid vesicles/micelles having intercalated NAG (on the test day), the dried substrate is taken up in 20 ml of assay buffer (25 mM TRIS/HCl, pH 7.4; 150 mM NaCl) and two ultrasonic treatments with an ultrasonic probe (Branson Sonifier type 11, standard microtip): 1st treatment setting 2, 2×1 min, in between in each case 1 min on ice; 2nd treatment setting 4, 2×1 min, in between in each case 1 min on ice. […] Before use as a substrate (within the next 2 h), the solution is additionally incubated on ice for 15 min.
The assay is carried out at 30° C. for 60 min in 1.5 ml Eppendorf vessels or 96-hole plates.

[1] = HSL 40 μg, 60 min, NAG 0.05 mg/ml
[2] = HSL 60 μg, 60 min, NAG 0.05 mg/ml
[3] = HSL 80 μg, 60 min, NAG 0.05 mg/ml

## O=C(CCCCCCCCCCCNc1ccc([N+](=O)[O-])c2nonc12)OCC(O)CO (centres unmarked) [Compound (3)]
HSL 40 μg, 20 min, NAG 0.05 mg/ml
  Increase in the absorption at 481 nm: 477 ± 182 arb. units
HSL 40 μg, 30 min, NAG 0.05 mg/ml
  Increase in the absorption at 481 nm: 2249 ± 286 arb. units
HSL 40 μg, 45 min, NAG 0.05 mg/ml
  Increase in the absorption at 481 nm: 2968 ± 321 arb. units
[1]
  Absorption change, Decrease, 550 nm: 91 ± 19 arb. units
  Absorption change, Increase, 481 nm: 4623 ± 511 arb. units
  Increase in the absorption at 481 nm: 4065 ± 399 arb. units
HSL 40 μg, 75 min, NAG 0.05 mg/ml
  Increase in the absorption at 481 nm: 4834 ± 462 arb. units
HSL 40 μg, 90 min, NAG 0.05 mg/ml
  Increase in the absorption at 481 nm: 5472 ± 813 arb. units
HSL 40 μg, 120 min, NAG 0.05 mg/ml
  Increase in the absorption at 481 nm: 5702 ± 531 arb. units
HSL 40 μg, 180 min, NAG 0.05 mg/ml
  Increase in the absorption at 481 nm: 5961 ± 560 arb. units
[2]
  Absorption change, Decrease, 550 nm: 62 ± 17 arb. units
  Absorption change, Increase, 481 nm: 5466 ± 602 arb. units
[3]
  Absorption change, Decrease, 550 nm: 54 ± 15 arb. units
  Absorption change, Increase, 481 nm: 5913 ± 485 arb. units
HSL, conditions optimized for HSL
  Activity relative to HSL: 100%
NAG 0.002 mg/ml, HSL 5 μg, 60 min
  Increase in the absorption at 481 nm: 61 ± 9 arb. units
NAG 0.002 mg/ml, HSL 20 μg, 60 min
  Increase in the absorption at 481 nm: 194 ± 23 arb. units
NAG 0.002 mg/ml, HSL 40 μg, 60 min
  Increase in the absorption at 481 nm: 525 ± 77 arb. units
NAG 0.005 mg/ml, HSL 5 μg, 60 min
  Increase in the absorption at 481 nm: 109 ± 17 arb. units
NAG 0.005 mg/ml, HSL 20 μg, 60 min
  Increase in the absorption at 481 nm: 342 ± 58 arb. units
NAG 0.005 mg/ml, HSL 40 μg, 60 min
  Increase in the absorption at 481 nm: 1420 ± 122 arb. units
NAG 0.01 mg/ml, HSL 5 μg, 60 min
  Increase in the absorption at 481 nm: 227 ± 31 arb. units
NAG 0.01 mg/ml, HSL 20 μg, 60 min
  Increase in the absorption at 481 nm: 852 ± 77 arb. units
NAG 0.01 mg/ml, HSL 40 μg, 60 min
  Increase in the absorption at 481 nm: 2745 ± 264 arb. units
NAG 0.02 mg/ml, HSL 5 μg, 60 min
  Increase in the absorption at 481 nm: 388 ± 45 arb. units
NAG 0.02 mg/ml, HSL 20 μg, 60 min
  Increase in the absorption at 481 nm: 1758 ± 195 arb. units
NAG 0.02 mg/ml, HSL 40 μg, 60 min
  Increase in the absorption at 481 nm: 6705 ± 532 arb. units
NAG 0.05 mg/ml, HSL 5 μg, 60 min
  Increase in the absorption at 481 nm: 705 ± 61 arb. units
NAG 0.05 mg/ml, HSL 20 μg, 60 min
  Increase in the absorption at 481 nm: 3002 ± 409 arb. units
NAG 0.05 mg/ml, HSL 40 μg, 60 min
  Increase in the absorption at 481 nm: 11547 ± 912 arb. units
NAG 0.075 mg/ml, HSL 5 μg, 60 min
  Increase in the absorption at 481 nm: 1121 ± 107 arb. units
NAG 0.075 mg/ml, HSL 20 μg, 60 min
  Increase in the absorption at 481 nm: 768 ± 502 arb. units
